Non-standard residues stand in square brackets, D forms with d. No end group written: not given here. Arg(Me2s) = CN=C(NC)NCCC[C@H](N)C(=O)O; pS = N[C@@H](COP(=O)(O)O)C(=O)O
How the values were obtained:
[1] = system: Bethyl antibody; assay: Reactivity of ATRX C-terminal peptides with the Bethyl antibody; type: binding; settings: KLH-coupled peptides, FIG. 11
Description: All peptides were generated by Thermo Fisher Scientific/Pierce Biotechnology and coupled to the carrier KLH. All conjugates were provided at >98% purity as determined by HPLC. Peptide sequences were confirmed by mass spec. Peptides RSK, 2490Ac and 2480Ra reacted with the Bethyl antibody (FIG. 11).

[2] = system: responder cell line LS8817; assay: Senescence-associated β-galactosidase after PD0332991 in ATRX knockdown cells; type: cell-based; settings: LS8817 infected with shRNA directed to ATRX vs shSCR, PD0332991 for seven days, FIG. 3
Method: To determine if ATRX plays a role in the senescence pathway induced by treatment with a CDK4 inhibitor, the expression of ATRX was genetically manipulated in the responder cell line, LS8817. Knockdown of ATRX (FIG. 2) was performed in LS8817 cells that were treated with PD0332991. The presence of ATRX in scrambled control shRNA (shSCR)-treated cells and the ATRX shRNA-treated cells was detected by the Bethyl antibody. The accumulation of […] associated β-galactosidase (SA-β-gal) shSCR-treated cells and the ATRX shRNA-treated cells was measured (FIG. 3). […] To determine if ATRX was also downstream of MDM2 loss, we subsequently infected the ATRX deficient cells with lentiviruses expressing shRNAs that targeted MDM2. In the responder cell line, LS8817, accumulation of SA-β-gal was still compromised even though the level of MDM2 was reduced (FIG. 4A). […] Thus, a form of ATRX was required for both PD0332991-induced loss of MDM2, and downstream of MDM2 loss to establish a senescent state.

[3] = system: responder cell line LS8817; assay: ATRX foci by immunofluorescence in responder cells treated with PD0332991; type: cell-based
Method: (§1) Cells were washed twice with PBS and fixed with 4% paraformaldehyde at room temperature for 20 minutes. Cells were again washed twice with PBS and treated with 0.1% triton X-100 in PBS for five minutes. Cells were again washed twice with PBS and blocked in 5% BSA in PBS for 30 minutes at room temperature. Cells were incubated with anti-ATRX antibody, obtained from Bethyl, Cat No. A301-045A, diluted at 1:2000 in PBS (stock is provided at 1 mg/ml) overnight at 4 degrees Celsius. The following day, cells were washed twice with PBS and incubated with Alexa Fluor-488 anti-rabbit secondary diluted at 1:500 in PBS (stock was provided at 2 mg/ml) for one hour at room temperature. Cells were washed twice with PBS and incubated with 0.1 ug/ml […] for 5 minutes at room temperature. Cells were washed three times with PBS and slides were mounted in Vectashield fluorescence mounting media. Slides were imaged using a Zeiss Axioplan 2 Upright Microscope. […] Immunofluorescence analysis using the Bethyl antibody was performed to determine if ATRX was recruited to foci. Immunofluorescence was performed as described in Example 1. In the responder cell line LS8817, further analysis was performed to determine the average number of foci present in responder cells undergoing senescence in response treatment with PD0332991. […] The distribution of the number of ATRX foci shifted to the right in responder cells treated with PD0332991 as compared to responder cells that were not treated. […] As shown in FIG. 16A-C, the increase in the number of ATRX foci in response to PD0332991 treatment in responder cells can be observed as early as day 2 subsequent to PD0332991 treatment.

[4] = system: non-responder cell line LS8107; assay: ATRX foci by immunofluorescence in non-responder cells treated with PD0332991; type: cell-based
Method: as §1, with “treatment. To determine whether ATRX foci can be used as a marker for indicating if non-responders underwent senescence in response to treatment with second drug in combination with a CDK inhibitor, non-responder cells, e.g., LS8107, was treated with PD0332991 followed by treatment with shRNA directed to MDM2 2 days post-PD0332991 treatment (FIG. 17).” for “treatment.”

## SKNPGPSQG (SKNPGP[pS]QG) [Peptide 2487P, amino acids 2481-2489 of ATRX, phosphorylated at serine 2487]
[1]
  reactivity with the Bethyl antibody: did not react

## APPMRSKNPGPSQGKSM [amino acids 2475-2492 of ATRX, no modification, coupled to the carrier KLH]
[1]
  reactivity with the Bethyl antibody: reacted

## PPPLQRAPPM [Peptide 2474, amino acids 2469-2479 of ATRX, no modification, coupled to KLH]
[1]
  reactivity with the Bethyl antibody: did not react

## CC(=O)c1c(C)c2cnc(Nc3ccc(N4CCNCC4)cn3)nc2n(C2CCCC2)c1=O [PD0332991]
[2]
  number of SA-β-gal positive cells: greatly reduced
[3]; LS8817, PD0332991 treated vs not treated, FIG. 14
  number of ATRX foci in responder cells undergoing senescence: significantly more
[3]; LS8817, in response to PD0332991 treatment, FIG. 14
  number of cells that contained 18 or more ATRX foci: greatly increased
[3]; responder cells, subsequent to PD0332991 treatment, FIG. 16A-C
  earliest time at which the increase in ATRX foci is observed: 2 days
[3]; senescent responder cells, PD0332991 treatment, FIG. 13B
  number of ATRX foci: increased
[4]; LS8107, PD0332991 followed by shMDM2 2 days later, vs untreated or PD0332991 alone, FIG. 18
  number of ATRX foci: significant increase
[4]; LS8107, PD0332991 treated vs not treated, FIG. 15
  average number of ATRX foci per cell: did not change
[4]; PD0332991-treated non-responder cells, FIG. 13B
  number of ATRX foci: no increase

## SKNPGPSQGKSM [Peptide 2490Ac, amino acids 2481-2492 of ATRX, acetylated at lysine 2490]
[1]
  reactivity with the Bethyl antibody: reacted

## APPPMRSKNP [2480Rs] (APPPM[Arg(Me2s)]SKNP) [Peptide 2480Rs, amino acids 2475-2484 of ATRX, symmetrically methylated at arginine 2480]
[1]
  reactivity with the Bethyl antibody: did not react

## APPPMRSKNP [Peptide 2480Ra, amino acids 2475-2484 of ATRX, asymmetrically methylated at arginine 2480]
[1]
  reactivity with the Bethyl antibody: reacted
